Tests used:
[1] = 101.33 kPa, Liquid, Vibrating tube method
[2] = xn = mol fraction of the nth substance listed; settings: 101 kPa, Liquid, Vibrating tube method

CN(C)C=O [dimethylformamide]
[1]
Settings	mass density [kg/m3]
278.15 K	962.901
288.15 K	953.398
298.15 K	943.869
308.15 K	934.298
318.15 K	924.683

CN(C)C=O [dimethylformamide] + O
mass density [kg/m3], [2]
Settings	278.15 K	288.15 K	298.15 K	308.15 K	318.15 K
x2 = 0.0002028	962.91	953.41	943.88	934.31	924.69
x2 = 0.0008875	962.94	953.44	943.91	934.34	924.72
x2 = 0.001707	962.98	953.48	943.95	934.38	924.76
x2 = 0.002654	963.03	953.53	944	934.42	924.8
x2 = 0.003456	963.06	953.57	944.03	934.46	924.84
x2 = 0.00465	963.12	953.62	944.09	934.52	924.89
x2 = 0.006106	963.19	953.69	944.16	934.58	924.96
x2 = 0.007804	963.28	953.77	944.24	934.66	925.04
x2 = 0.009189	963.34	953.84	944.3	934.73	925.1
x2 = 0.01051	963.4	953.9	944.37	934.79	925.16
x2 = 0.01182	963.47	953.97	944.43	934.85	925.22

CC(=O)N(C)C [N,N-dimethylethanamide] + O
mass density [kg/m3], [2]
Settings	278.15 K	288.15 K	298.15 K	308.15 K	318.15 K
x2 = 0.0002901	954.8	945.61	936.4	927.16	917.88
x2 = 0.001042	954.84	945.65	936.44	927.2	917.92
x2 = 0.001656	954.87	945.68	936.47	927.23	917.95
x2 = 0.002777	954.93	945.74	936.53	927.28	918
x2 = 0.003783	954.99	945.8	936.58	927.34	918.05
x2 = 0.004833	955.05	945.85	936.64	927.39	918.1
x2 = 0.005867	955.1	945.91	936.69	927.44	918.16
x2 = 0.007593	955.19	946	936.78	927.53	918.24
x2 = 0.008945	955.27	946.07	936.85	927.6	918.31
x2 = 0.01063	955.36	946.16	936.94	927.69	918.39
x2 = 0.01192	955.43	946.23	937.01	927.75	918.46

CC(=O)N(C)C [N,N-dimethylethanamide]
[1]
Settings	mass density [kg/m3]
278.15 K	954.78
288.15 K	945.591
298.15 K	936.382
308.15 K	927.142
318.15 K	917.863

[2H]O[2H] [water-d2] + CC(=O)N(C)C
mass density [kg/m3], [2]
Settings	278.15 K	288.15 K	298.15 K	308.15 K	318.15 K
x1 = 0.0002901	954.8	945.61	936.4	927.16	917.88
x1 = 0.0009284	954.85	945.66	936.45	927.21	917.93
x1 = 0.00199	954.93	945.74	936.53	927.29	918
x1 = 0.002684	954.98	945.79	936.58	927.34	918.05
x1 = 0.003434	955.05	945.85	936.64	927.39	918.11
x1 = 0.004789	955.15	945.96	936.74	927.49	918.21
x1 = 0.005915	955.24	946.05	936.83	927.58	918.28
x1 = 0.007384	955.36	946.16	936.94	927.69	918.39
x1 = 0.008715	955.46	946.26	937.04	927.79	918.49
x1 = 0.01024	955.59	946.38	937.16	927.9	918.6
x1 = 0.01198	955.72	946.52	937.29	928.03	918.73

[2H]O[2H] [water-d2] + CN(C)C=O
mass density [kg/m3], [2]
Settings	278.15 K	288.15 K	298.15 K	308.15 K	318.15 K
x1 = 0.0002028	962.92	953.41	943.88	934.31	924.7
x1 = 0.0009641	962.98	953.47	943.94	934.37	924.75
x1 = 0.00191	963.05	953.54	944.01	934.44	924.82
x1 = 0.002862	963.12	953.61	944.08	934.5	924.89
x1 = 0.003812	963.19	953.68	944.15	934.57	924.96
x1 = 0.004846	963.27	953.76	944.23	934.65	925.03
x1 = 0.005839	963.35	953.84	944.3	934.72	925.1
x1 = 0.006984	963.44	953.92	944.39	934.81	925.19
x1 = 0.008587	963.56	954.05	944.51	934.93	925.31
x1 = 0.01049	963.71	954.19	944.65	935.07	925.44
x1 = 0.012	963.83	954.31	944.77	935.18	925.55

Source: the NIST ThermoML archive (doi:10.1016/j.jct.2012.04.007)
